One experiment concerns the target AMPK-alpha1 (Homo sapiens, UniProt Q13131). Description: KINOMEscan competition binding. Particulars: read-out: %Inh AMPK-alpha1.
For the next experiment, the target named is CDK4-cyclinD1 (Homo sapiens, UniProt P11802). Nature of the experiment: KINOMEscan competition binding. The note with it: read-out: %Inh CDK4-cyclinD1.
The next experiment has as its target CSNK1D (Homo sapiens, UniProt P48730). Nature of the experiment: KINOMEscan competition binding. Particulars: read-out: %Inh CSNK1D.
Another experiment addresses T1, CDKL5 (Homo sapiens, UniProt O76039).
T1 sequence (O76039 1-960): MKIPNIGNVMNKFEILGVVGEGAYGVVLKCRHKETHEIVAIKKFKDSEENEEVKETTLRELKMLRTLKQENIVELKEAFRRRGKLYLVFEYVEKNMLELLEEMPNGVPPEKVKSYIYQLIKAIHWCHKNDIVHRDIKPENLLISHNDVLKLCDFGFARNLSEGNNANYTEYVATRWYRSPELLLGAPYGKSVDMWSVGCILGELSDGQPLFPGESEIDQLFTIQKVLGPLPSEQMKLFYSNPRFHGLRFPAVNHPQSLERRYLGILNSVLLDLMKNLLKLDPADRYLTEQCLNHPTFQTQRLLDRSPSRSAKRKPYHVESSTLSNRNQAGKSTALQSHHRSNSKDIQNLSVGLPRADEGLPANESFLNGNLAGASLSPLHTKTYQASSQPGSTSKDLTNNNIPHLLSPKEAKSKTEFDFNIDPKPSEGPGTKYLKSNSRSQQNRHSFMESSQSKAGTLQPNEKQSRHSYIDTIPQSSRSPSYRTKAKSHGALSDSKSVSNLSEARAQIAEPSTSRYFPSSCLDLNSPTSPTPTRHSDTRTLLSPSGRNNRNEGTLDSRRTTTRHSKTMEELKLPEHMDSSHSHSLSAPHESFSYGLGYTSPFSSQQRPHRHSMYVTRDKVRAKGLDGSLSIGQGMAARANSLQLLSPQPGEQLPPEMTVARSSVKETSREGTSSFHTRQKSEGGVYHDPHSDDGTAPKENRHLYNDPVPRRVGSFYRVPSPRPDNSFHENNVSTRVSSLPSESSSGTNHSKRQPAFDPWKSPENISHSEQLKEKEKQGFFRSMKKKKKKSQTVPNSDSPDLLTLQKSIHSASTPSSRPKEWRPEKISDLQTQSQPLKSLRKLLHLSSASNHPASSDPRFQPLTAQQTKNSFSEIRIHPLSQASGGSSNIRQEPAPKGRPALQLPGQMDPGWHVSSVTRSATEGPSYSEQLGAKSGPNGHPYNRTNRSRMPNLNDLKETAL
Nature of the experiment: KINOMEscan competition binding. The note with it: read-out: %Inh CDKL5.

Another experiment addresses T2, EPHA6 (Homo sapiens, UniProt Q9UF33).
T2 sequence (Q9UF33 23-1036): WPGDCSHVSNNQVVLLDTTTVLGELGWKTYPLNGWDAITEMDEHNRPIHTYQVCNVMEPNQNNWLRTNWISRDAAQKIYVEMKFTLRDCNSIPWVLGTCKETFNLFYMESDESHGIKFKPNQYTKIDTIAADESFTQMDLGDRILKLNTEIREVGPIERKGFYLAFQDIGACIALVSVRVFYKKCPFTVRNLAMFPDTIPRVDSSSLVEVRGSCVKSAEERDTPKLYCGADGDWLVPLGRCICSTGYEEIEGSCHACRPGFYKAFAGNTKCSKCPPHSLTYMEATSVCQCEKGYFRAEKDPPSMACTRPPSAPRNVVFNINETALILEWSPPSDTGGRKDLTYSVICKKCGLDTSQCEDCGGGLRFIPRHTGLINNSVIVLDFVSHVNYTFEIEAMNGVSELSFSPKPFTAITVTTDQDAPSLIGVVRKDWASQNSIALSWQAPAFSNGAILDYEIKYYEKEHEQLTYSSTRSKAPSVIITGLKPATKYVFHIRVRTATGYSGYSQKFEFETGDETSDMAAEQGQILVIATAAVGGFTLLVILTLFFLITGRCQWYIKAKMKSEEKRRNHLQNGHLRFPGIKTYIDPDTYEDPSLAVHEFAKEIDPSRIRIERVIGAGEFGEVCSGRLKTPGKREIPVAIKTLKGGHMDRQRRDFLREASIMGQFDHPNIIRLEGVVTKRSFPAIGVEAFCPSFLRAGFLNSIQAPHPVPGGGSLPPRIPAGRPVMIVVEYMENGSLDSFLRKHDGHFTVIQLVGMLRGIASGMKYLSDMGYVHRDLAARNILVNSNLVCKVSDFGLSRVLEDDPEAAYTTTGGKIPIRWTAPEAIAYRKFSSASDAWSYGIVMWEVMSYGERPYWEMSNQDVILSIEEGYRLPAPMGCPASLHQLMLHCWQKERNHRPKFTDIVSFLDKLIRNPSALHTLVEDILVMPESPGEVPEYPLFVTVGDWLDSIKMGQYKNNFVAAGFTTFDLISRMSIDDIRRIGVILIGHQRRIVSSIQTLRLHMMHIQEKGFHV
Nature of the experiment: KINOMEscan competition binding. Particulars: read-out: %Inh EPHA6.

For the next experiment, the target named is DAPK1 (Homo sapiens, UniProt P53355). Description: KINOMEscan competition binding. The note with it: read-out: %Inh DAPK1.
The next experiment has as its target GSK3B (Homo sapiens, UniProt P49841). Nature of the experiment: KINOMEscan competition binding. Particulars: read-out: %Inh GSK3B.
Experiment [1] concerns the target JAK1(JH1domain-catalytic) (Homo sapiens, UniProt P23458). Nature of the experiment: KINOMEscan competition binding. Particulars: read-out: %Inh JAK1(JH1domain-catalytic).
In the next experiment the target is DDR1 (Homo sapiens, UniProt Q08345). Description: KINOMEscan competition binding. Particulars: read-out: %Inh DDR1.
The target in another experiment is CDK4 (Homo sapiens, UniProt P11802). Nature of the experiment: KINOMEscan competition binding. The note with it: read-out: %Inh CDK4.
The test system of experiment [2] is 392 wild-type human kinases. Description: KINOMEscan assay panel, PKIS2 profiling. Particulars: 1 μM. Type of experiment: binding. The source says: Since the assay was only run in singlicate it was important to follow up actives with Kd determinations.
The next experiment concerns the target FGFR2 (Homo sapiens, UniProt P21802). Nature of the experiment: KINOMEscan competition binding. The note with it: read-out: %Inh FGFR2.
In the next experiment the target is HCK (Homo sapiens, UniProt P08631). Nature of the experiment: KINOMEscan competition binding. Particulars: read-out: %Inh HCK.
Sequence of HCK (P08631 whole entry): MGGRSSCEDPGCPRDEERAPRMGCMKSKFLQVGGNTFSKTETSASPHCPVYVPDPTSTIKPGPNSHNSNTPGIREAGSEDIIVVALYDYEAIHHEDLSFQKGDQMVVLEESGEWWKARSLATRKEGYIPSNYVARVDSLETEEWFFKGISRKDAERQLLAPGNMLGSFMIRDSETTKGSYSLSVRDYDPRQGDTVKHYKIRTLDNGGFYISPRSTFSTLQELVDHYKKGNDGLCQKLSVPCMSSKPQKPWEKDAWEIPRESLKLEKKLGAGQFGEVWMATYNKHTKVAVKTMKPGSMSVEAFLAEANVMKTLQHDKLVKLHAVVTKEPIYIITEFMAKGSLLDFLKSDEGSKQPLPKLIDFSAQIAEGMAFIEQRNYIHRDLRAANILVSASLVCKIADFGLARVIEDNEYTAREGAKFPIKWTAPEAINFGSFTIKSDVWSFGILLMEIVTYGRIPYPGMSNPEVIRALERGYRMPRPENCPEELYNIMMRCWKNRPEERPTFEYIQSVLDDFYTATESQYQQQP

Sequence of AMPK-alpha1 (Q13131 whole entry): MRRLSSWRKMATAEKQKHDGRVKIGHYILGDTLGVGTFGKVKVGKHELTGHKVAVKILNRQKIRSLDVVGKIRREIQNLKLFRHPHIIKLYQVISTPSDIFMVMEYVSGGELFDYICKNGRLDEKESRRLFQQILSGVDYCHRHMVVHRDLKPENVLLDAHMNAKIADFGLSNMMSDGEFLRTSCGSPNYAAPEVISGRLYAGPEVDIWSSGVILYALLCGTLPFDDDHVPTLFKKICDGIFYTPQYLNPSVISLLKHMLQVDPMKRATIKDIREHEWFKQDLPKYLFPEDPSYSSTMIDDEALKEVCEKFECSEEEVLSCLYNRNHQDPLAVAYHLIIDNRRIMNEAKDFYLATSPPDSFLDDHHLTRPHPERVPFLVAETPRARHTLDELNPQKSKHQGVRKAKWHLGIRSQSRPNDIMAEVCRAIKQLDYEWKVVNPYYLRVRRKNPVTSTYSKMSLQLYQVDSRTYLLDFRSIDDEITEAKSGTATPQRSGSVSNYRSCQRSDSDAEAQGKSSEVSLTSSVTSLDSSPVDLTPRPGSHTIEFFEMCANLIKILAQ
Sequence of CSNK1D (P48730 whole entry): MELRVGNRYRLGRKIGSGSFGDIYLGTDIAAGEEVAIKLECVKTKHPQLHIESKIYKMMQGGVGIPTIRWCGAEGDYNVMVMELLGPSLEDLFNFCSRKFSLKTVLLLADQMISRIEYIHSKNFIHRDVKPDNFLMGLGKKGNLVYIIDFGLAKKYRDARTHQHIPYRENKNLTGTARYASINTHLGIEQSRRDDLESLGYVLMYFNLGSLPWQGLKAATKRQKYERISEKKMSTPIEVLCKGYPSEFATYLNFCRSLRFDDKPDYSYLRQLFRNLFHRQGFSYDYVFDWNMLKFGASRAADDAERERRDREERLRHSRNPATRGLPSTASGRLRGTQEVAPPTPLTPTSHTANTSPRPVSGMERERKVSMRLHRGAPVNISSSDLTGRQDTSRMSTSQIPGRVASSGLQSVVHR
Sequence of FGFR2 (P21802 22-821): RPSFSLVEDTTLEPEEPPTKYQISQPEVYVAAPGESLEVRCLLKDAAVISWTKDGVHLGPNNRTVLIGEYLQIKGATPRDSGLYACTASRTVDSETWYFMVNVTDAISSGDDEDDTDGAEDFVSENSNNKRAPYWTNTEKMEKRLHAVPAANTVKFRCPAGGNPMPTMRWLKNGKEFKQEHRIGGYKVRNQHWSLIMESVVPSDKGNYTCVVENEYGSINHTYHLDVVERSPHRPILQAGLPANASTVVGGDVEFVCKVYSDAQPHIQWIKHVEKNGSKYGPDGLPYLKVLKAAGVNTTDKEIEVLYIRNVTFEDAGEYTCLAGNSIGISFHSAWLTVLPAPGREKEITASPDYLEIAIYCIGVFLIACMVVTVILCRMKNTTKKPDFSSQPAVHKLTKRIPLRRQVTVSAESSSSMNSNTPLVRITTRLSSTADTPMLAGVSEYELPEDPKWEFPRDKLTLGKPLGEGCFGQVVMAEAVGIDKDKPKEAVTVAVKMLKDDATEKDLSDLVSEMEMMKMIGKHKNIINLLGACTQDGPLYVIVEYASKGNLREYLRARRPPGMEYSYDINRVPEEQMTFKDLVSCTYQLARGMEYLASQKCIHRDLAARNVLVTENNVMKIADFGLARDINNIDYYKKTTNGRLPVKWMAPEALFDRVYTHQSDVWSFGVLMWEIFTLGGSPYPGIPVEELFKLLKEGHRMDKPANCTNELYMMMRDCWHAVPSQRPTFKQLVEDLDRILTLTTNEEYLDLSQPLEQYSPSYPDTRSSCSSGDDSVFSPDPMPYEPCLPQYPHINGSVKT
Sequence of GSK3B (P49841 whole entry): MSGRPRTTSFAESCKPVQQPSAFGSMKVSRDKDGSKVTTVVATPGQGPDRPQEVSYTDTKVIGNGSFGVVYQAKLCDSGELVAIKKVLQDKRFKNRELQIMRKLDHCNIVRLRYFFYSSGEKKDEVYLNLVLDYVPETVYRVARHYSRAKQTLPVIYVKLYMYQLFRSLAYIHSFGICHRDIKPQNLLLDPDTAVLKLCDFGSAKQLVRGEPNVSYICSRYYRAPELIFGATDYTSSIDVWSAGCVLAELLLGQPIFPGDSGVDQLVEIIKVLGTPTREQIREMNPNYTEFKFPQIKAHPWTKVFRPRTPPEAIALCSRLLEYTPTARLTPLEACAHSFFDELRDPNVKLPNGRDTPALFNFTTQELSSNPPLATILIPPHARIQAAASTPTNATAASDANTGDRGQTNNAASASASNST
Sequence of DDR1 (Q08345 19-913): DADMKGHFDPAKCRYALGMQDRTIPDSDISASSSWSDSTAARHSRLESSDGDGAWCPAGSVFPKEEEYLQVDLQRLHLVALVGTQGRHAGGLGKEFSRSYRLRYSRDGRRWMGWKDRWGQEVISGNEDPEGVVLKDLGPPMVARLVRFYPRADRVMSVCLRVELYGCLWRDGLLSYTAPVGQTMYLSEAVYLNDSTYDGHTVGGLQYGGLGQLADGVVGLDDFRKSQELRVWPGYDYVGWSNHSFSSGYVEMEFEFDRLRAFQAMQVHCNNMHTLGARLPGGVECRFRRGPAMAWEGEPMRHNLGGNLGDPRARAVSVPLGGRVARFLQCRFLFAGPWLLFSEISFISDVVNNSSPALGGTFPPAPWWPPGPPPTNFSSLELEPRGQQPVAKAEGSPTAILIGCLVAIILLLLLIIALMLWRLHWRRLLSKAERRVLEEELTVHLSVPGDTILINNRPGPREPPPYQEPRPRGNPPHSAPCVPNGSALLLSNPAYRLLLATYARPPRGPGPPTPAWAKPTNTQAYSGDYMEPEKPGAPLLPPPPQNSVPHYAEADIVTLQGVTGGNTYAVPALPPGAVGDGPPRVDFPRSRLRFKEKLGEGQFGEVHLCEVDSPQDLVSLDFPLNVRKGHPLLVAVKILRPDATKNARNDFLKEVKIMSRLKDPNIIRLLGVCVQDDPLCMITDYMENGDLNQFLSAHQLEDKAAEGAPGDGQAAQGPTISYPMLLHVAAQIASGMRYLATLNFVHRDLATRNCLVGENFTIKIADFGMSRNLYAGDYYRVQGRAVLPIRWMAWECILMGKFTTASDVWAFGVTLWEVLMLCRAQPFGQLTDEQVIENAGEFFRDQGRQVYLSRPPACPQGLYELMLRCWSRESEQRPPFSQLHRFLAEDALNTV
Sequence of DAPK1 (P53355 whole entry): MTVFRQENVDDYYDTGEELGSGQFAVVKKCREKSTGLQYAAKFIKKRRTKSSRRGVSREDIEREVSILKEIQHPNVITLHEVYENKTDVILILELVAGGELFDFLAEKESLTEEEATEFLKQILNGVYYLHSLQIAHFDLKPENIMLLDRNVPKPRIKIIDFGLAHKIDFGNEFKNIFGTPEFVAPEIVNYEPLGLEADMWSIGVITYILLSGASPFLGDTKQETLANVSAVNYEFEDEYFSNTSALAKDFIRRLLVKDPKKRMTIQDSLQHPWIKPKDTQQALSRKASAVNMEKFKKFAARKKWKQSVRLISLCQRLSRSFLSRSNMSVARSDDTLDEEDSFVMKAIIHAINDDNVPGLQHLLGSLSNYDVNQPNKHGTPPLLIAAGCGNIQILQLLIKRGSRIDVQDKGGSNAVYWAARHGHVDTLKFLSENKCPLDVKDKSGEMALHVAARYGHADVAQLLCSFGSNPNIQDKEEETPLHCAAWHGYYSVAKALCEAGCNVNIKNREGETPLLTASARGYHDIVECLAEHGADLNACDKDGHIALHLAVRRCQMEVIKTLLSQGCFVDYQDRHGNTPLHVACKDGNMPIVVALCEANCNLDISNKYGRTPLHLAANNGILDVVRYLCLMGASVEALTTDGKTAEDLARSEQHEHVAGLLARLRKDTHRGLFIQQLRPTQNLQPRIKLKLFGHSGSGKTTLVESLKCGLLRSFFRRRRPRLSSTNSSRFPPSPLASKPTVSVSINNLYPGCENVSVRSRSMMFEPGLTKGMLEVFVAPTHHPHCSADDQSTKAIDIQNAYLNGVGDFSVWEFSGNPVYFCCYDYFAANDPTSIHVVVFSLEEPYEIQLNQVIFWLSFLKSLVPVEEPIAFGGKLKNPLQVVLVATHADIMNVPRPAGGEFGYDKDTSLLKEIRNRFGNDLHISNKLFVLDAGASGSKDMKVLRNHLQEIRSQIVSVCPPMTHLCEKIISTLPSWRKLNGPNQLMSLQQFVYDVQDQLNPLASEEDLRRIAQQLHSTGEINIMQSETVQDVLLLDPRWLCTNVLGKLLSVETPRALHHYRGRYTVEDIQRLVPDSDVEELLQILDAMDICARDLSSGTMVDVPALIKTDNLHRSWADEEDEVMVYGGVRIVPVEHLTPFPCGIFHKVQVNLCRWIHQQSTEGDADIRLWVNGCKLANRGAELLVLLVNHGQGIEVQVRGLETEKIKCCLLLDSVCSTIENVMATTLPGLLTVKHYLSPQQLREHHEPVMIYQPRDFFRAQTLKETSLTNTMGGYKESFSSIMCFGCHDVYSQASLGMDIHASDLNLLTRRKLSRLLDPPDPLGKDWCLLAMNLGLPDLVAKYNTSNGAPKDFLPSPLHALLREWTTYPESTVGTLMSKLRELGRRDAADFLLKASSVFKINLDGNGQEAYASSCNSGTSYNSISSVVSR

As to `Cn1cc(-c2cnc(N)c3c(-c4ccc5c(c4)CCN5C(=O)Cc4ccccc4)csc23)cn1` [UNC10225012A], the inhibition at 1 µM came to 17% on AMPK-alpha1; 0% at CDK4-cyclinD1; 0% on CSNK1D; 0% on CDKL5; 11% at EPHA6; 38% on DAPK1. Moreover, the inhibition at 1 µM is 0% at GSK3B; 0% in [1]; 97.7% on DDR1; 0% on CDK4; 40% at FGFR2; 86% on HCK. Moreover, the “>70 (number of kinases with %Inh >70)” value in [2] turned out to be 42. Also, the “>80 (number of kinases with %Inh >80)” value in experiment [2] is recorded as 36. In [2], the “>90 (number of kinases with %Inh >90)” value is 27.

In the case of `CS(=O)(=O)Cc1ccc(Nc2nccc(-c3c(-c4cccc(NC(=O)C5CCCCC5)c4)nn4ncccc34)n2)cc1` [UNC10225159A], the inhibition at 1 µM is 2% at AMPK-alpha1; 15% at CDK4-cyclinD1; 0% on CSNK1D; 33% at CDKL5; 2% at EPHA6; 0% at DAPK1. In addition, the inhibition at 1 µM is 20% on GSK3B; 0% in [1]; 96.6% at DDR1; 18% at CDK4; 41% at FGFR2; 1% at HCK. The “>70 (number of kinases with %Inh >70)” value in experiment [2] is recorded as 12. The “>80 (number of kinases with %Inh >80)” value in experiment [2] turned out to be 10. In addition, the “>90 (number of kinases with %Inh >90)” value in [2] came to 5.

Consider `Cc1ccc(NC(=O)Nc2cccc(C(F)(F)F)c2)cc1` [UNC10225187A], for which the inhibition at 1 µM at AMPK-alpha1 was found to be 0%; at CDK4-cyclinD1, 0%; at CSNK1D, 0%; on CDKL5, 0%; at EPHA6, 0%; on DAPK1, 18%. The inhibition at 1 µM on GSK3B is 0%; in experiment [1], 0%; on DDR1, 43%; on CDK4 it was 0%; on FGFR2, 0%; on HCK, 0%. Moreover, in experiment [2], the “>70 (number of kinases with %Inh >70)” value is on record as 4. Besides, the “>80 (number of kinases with %Inh >80)” value in experiment [2] worked out at 4. The “>90 (number of kinases with %Inh >90)” value in experiment [2] was determined as 3.

Consider `COc1cccc(OC)c1C(=O)Nc1cccc(-c2nn3ccccc3c2-c2ccnc(Nc3cccc(F)c3)n2)c1` [UNC10225310A], for which the inhibition at 1 µM on AMPK-alpha1 was 25%; at CDK4-cyclinD1, 0%; on CSNK1D, 9%; on CDKL5, 0%; at EPHA6, 11%; at DAPK1 it was 10%. Also, the inhibition at 1 µM was 0% on GSK3B; 0% in [1]; 99.3% on DDR1; 0% at CDK4; 0% at FGFR2; 30% at HCK. The “>70 (number of kinases with %Inh >70)” value in experiment [2] is reported as 19. The “>80 (number of kinases with %Inh >80)” value in [2] worked out at 19. For the same compound, the “>90 (number of kinases with %Inh >90)” value in experiment [2] turned out to be 12.

Consider `O=c1cc(N2CCOCC2)nc2n(Cc3cccc(Cl)c3Cl)c(C3CC3)nn12` [UNC10225469A], for which the inhibition at 1 µM on AMPK-alpha1 stood at 5%; at CDK4-cyclinD1 it was 0%; at CSNK1D, 7%; at CDKL5 it was 0%; on EPHA6, 0%; at DAPK1, 26%. For the same compound, the inhibition at 1 µM on GSK3B was determined as 0%; in experiment [1], 9%; at DDR1, 21%; at CDK4, 0%; on FGFR2, 1%; at HCK it was 0%. For the same compound, the “>70 (number of kinases with %Inh >70)” value in experiment [2] stood at 3. Also, the “>80 (number of kinases with %Inh >80)” value in experiment [2] is reported as 3. The “>90 (number of kinases with %Inh >90)” value in [2] turned out to be 2.

(Values after article PMC5540273, “Progress towards a public chemogenomic set for protein kinases and a call for contributions” (PLoS ONE, 2017).)
